Data on 18 compounds can be found in US7109193B2, “Tricyclic diazepines tocolytic oxytocin receptor antagonists” (Wyeth, priority 2001, dated 2006).

The target in the assay is T1, human vasopressin V1a receptor subtype (Homo sapiens, UniProt P37288).
T1 construct: host or cells: CHO cells (pZeoSV vector for the Thibonnier line)
In words: Vasopressin binding in Chinese Hamster Ovary cell membranes expressing human vasopressin V1a subtype receptors. The conditions noted are these: 100 nM, CHO cell membranes, [3H]Manning ligand, values without parentheses. The gist of the method: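 Displacement of [3H]Manning ligand (8 nM working solution) from human V1a receptors in CHO cell membranes, 25–50 μg protein per well. Incubation ran 60 min at room temperature in 50 mM Tris-HCl pH 7.4 with protease inhibitors, followed by filtration and scintillation counting. Results are given as IC50 or percent inhibition.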

T1 sequence (P37288 whole entry): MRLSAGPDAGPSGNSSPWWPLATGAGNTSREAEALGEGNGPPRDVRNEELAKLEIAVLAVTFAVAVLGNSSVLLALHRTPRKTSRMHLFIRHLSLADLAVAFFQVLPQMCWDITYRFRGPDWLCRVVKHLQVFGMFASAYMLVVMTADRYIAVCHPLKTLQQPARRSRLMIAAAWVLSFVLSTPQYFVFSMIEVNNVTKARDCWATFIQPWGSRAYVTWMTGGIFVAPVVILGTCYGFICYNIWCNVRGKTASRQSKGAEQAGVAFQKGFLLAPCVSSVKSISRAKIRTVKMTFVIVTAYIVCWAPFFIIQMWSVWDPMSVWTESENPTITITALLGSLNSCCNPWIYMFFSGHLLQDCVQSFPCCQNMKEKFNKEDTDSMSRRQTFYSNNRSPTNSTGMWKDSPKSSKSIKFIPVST

What is called inhibition is the change of the read-out against control, counted positive when it falls. With `COc1cccc(-c2ccc(C(=O)N3Cc4ccc(C(=O)NCCCN(C)C)n4Cc4ccccc43)cc2C)c1` [Example 74, N-[3-(Dimethylamino)propyl]-10-[(3′-methoxy-2-methyl[1,1′-biphenyl]-4-yl)carbonyl]-10,11-dihydro-5H-pyrrolo[2,1-c][1,4]benzodiazepine-3-carboxamide], the inhibition at 0.1 µM was 12%.

Turning to `COc1ccccc1-c1ccc(C(=O)N2Cc3ccc(C(=O)NCCCN(C)C)n3Cc3ccccc32)cc1` [Example 75, N-[3-(Dimethylamino)propyl]-10-[(2′-methoxy[1,1′-biphenyl]-4-yl)carbonyl]-10,11-dihydro-5H-pyrrolo[2,1-c][1,4]benzodiazepine-3-carboxamide], the inhibition at 0.1 µM was determined as 27%.

As to `Cc1ccccc1-c1ccc(C(=O)N2Cc3ccc(C(=O)NCCCN(C)C)n3Cc3ccccc32)cc1` [Example 76, N-[3-(Dimethylamino)propyl]-10-[(2′-methyl[1,1′-biphenyl]-4-yl)carbonyl]-10,11-dihydro-5H-pyrrolo[2,1-c][1,4]benzodiazepine-3-carboxamide], the inhibition at 0.1 µM turned out to be 58%.

As to `COc1cc(C(=O)N2Cc3ccc(C(=O)NCCCN(C)C)n3Cc3ccccc32)ccc1-c1ccccc1C` [Example 77, N-[3-(Dimethylamino)propyl]-10-[(2-methoxy-2′-methyl[1,1′-biphenyl]-4-yl)carbonyl]-10,11-dihydro-5H-pyrrolo[2,1-c][1,4]benzodiazepine-3-carboxamide], the inhibition at 0.1 µM worked out at 44%.

With `COc1cc(-c2ccccc2C)c(Cl)cc1C(=O)N1Cc2ccc(C(=O)NCCCN(C)C)n2Cc2ccccc21` [Example 78, 10-[(6-Chloro-3-methoxy-2′-methyl[1,1′-biphenyl]-4-yl)carbonyl]-N-[3-(dimethylamino)propyl]-10,11-dihydro-5H-pyrrolo[2,1-c][1,4]benzodiazepine-3-carboxamide], the inhibition at 0.1 µM was -3%.

With `CC(C)N1CCN(C(=O)c2ccc3n2Cc2ccccc2N(C(=O)c2ccc(-c4cccc5ccccc45)cc2Cl)C3)CC1` [Example 243, {10-[2-Chloro-4-(1-naphthyl)benzoyl]-10,11-dihydro-5H-pyrrolo[2,1-c][1,4]benzodiazepin-3-yl}(4-isopropyl-1-piperazinyl)methanone], the inhibition at 0.1 µM is 5%.

Consider `Cc1ccccc1-c1ccc(C(=O)N2Cc3ccc(C(=O)N4CCN(CCCN(C)C)CC4)n3Cc3ccccc32)cc1C` [Example 247, {4-[3-(Dimethylamino)propyl]-1-piperazinyl}{10-[(2,2′-dimethyl[1,1′-biphenyl]-4-yl)carbonyl]-10,11-dihydro-5H-pyrrolo[2,1-c][1,4]benzodiazepin-3-yl}methanone], for which the inhibition at 0.1 µM amounted to 62%.

As to `COc1cccc(-c2ccc(C(=O)N3Cc4ccc(C(=O)N5CCN(CCCN(C)C)CC5)n4Cc4ccccc43)cc2C)c1` [Example 248, {4-[3-(Dimethylamino)propyl]-1-piperazinyl}{10-[(3′-methoxy-2-methyl[1,1′-biphenyl]-4-yl)carbonyl]-10,11-dihydro-5H-pyrrolo[2,1-c][1,4]benzodiazepin-3-yl}methanone], the inhibition at 0.1 µM was found to be 17%.

With `Cc1ccccc1-c1ccc(C(=O)N2Cc3ccc(C(=O)N4CCN(CCCN(C)C)CC4)n3Cc3ccccc32)cc1` [Example 249, {4-[3-(Dimethylamino)propyl]-1-piperazinyl}{10-[(2′-methyl[1,1′-biphenyl]-4-yl)carbonyl]-10,11-dihydro-5H-pyrrolo[2,1-c][1,4]benzodiazepin-3-yl}methanone], the inhibition at 0.1 µM was 12%.

Take `COc1cc(C(=O)N2Cc3ccc(C(=O)N4CCN(CCCN(C)C)CC4)n3Cc3ccccc32)ccc1-c1ccccc1C` [Example 250, {4-[3-(Dimethylamino)propyl]-1-piperazinyl}{10-[(2-methoxy-2′-methyl[1,1′-biphenyl]-4-yl)carbonyl]-10,11-dihydro-5H-pyrrolo[2,1-c][1,4]benzodiazepin-3-yl}methanone]: the inhibition at 0.1 µM was determined as 53%.

Consider `COc1cc(-c2ccccc2C)c(Cl)cc1C(=O)N1Cc2ccc(C(=O)N3CCN(CCCN(C)C)CC3)n2Cc2ccccc21` [Example 251, {10-[(6-Chloro-3-methoxy-2′-methyl[1,1′-biphenyl]-4-yl)carbonyl]-10,11-dihydro-5H-pyrrolo[2,1-c][1,4]benzodiazepin-3-yl}{4-[3-(dimethylamino)propyl]-1-piperazinyl}methanone], for which the inhibition at 0.1 µM came out at 6%.

For `COc1cccc(-c2cc(OC)c(C(=O)N3Cc4ccc(C(=O)N5CCN(CCCN(C)C)CC5)n4Cc4ccccc43)cc2Cl)c1` [Example 252, {10-[(6-Chloro-3,3′-dimethoxy[1,1′-biphenyl]-4-yl)carbonyl]-10,11-dihydro-5H-pyrrolo[2,1-c][1,4]benzodiazepin-3-yl}{4-[3-(dimethylamino)propyl]-1-piperazinyl}methanone], the inhibition at 0.1 µM turned out to be 8%.

Take `COc1cc(C(=O)N2Cc3ccc(C(=O)N4CCN(CCCN(C)C)CC4)n3Cc3ccccc32)ccc1-c1cccc2ccccc12` [Example 253, {4-[3-(Dimethylamino)propyl]-1-piperazinyl}{10-[3-methoxy-4-(1-naphthyl)benzoyl]-10,11-dihydro-5H-pyrrolo[2,1-c][1,4]benzodiazepin-3-yl}methanone]: the inhibition at 0.1 µM was found to be 16%.

Consider `COc1ccccc1-c1ccc(C(=O)N2Cc3ccc(C(=O)N4CCN(CCCN(C)C)CC4)n3Cc3ccccc32)cc1OC` [Example 254, {10-[(2,2′-Dimethoxy[1,1′-biphenyl]-4-yl)carbonyl]-10,11-dihydro-5H-pyrrolo[2,1-c][1,4]benzodiazepin-3-yl}{4-[3-(dimethylamino)propyl]-1-piperazinyl}methanone], for which the inhibition at 0.1 µM was 7%.

As to `COc1cccc(-c2ccc(C(=O)N3Cc4ccc(C(=O)N5CCN(CCCN(C)C)CC5)n4Cc4ccccc43)cc2OC)c1` [Example 255, {10-[(2,3′-Dimethoxy[1,1′-biphenyl]-4-yl)carbonyl]-10,11-dihydro-5H-pyrrolo[2,1-c][1,4]benzodiazepin-3-yl}{4-[3-(dimethylamino)propyl]-1-piperazinyl}methanone], the inhibition at 0.1 µM is 53%.

For `CN(C)CCCN1CCN(C(=O)c2ccc3n2Cc2ccccc2N(C(=O)c2ccc(-c4cccc5ccccc45)cc2Cl)C3)CC1` [Example 256, {10-[2-Chloro-4-(1-naphthyl)benzoyl]-10,11-dihydro-5H-pyrrolo[2,1-c][1,4]benzodiazepin-3-yl}{4-[3-(dimethylamino)propyl]-1-piperazinyl}methanone], the inhibition at 0.1 µM was 7%.

Regarding `Cc1cc(C(=O)N2Cc3ccc(C(=O)N4CCN(CCCN(C)C)CC4)n3Cc3ccccc32)ccc1-c1ccccc1C(F)(F)F` [Example 257, {10-[(2-Methyl-2′-trifluoromethyl-[1,1′-biphenyl]-4-yl)carbonyl]-10,11-dihydro-5H-pyrrolo[2,1-c][1,4]benzodiazepin-3-yl}{4-[3-(dimethylamino)propyl]-1-piperazinyl}-methanone], for the setting “0.1 µM”, the “V1a % inhibition @ 100 nM” value was found to be 10%.

`Cc1cc(C(=O)N2Cc3ccc(C(=O)N[C@@H](Cc4c[nH]cn4)C(N)=O)n3Cc3ccccc32)ccc1-c1ccccc1C(F)(F)F` [Example 284, N-[(1S)-2-Amino-1-(1H-imidazol-4-ylmethyl)-2-oxoethyl]-10-{[2-methyl-2′-(trifluoromethyl)[1,1′-biphenyl]-4-yl]carbonyl}-10,11-dihydro-5H-pyrrolo[2,1-c][1,4]benzodiazepine-3-carboxamide]: the inhibition at 0.1 µM was determined as 0%.
